In US20110319416A1, “Subunit Selective NMDA Receptor Antagonists For The Treatment Of Neurological Conditions” (EMORY UNIVERSITY, priority 2009, published 2011):
Like-named read-outs stand apart in the source and are kept apart here. Marks after values point to notes of the source that are not given here.

What was measured:
[1] = target: NR1/NR2A (Rattus norvegicus, UniProt P35439+Q00959); assay: Two electrode voltage clamp, Xenopus oocytes expressing recombinant NR1/NR2A; assay type: cell-based; settings: for remaining activity at 100 µM: read-out: 2A percent effect at the maximum tested concentration
Method: (§1) Quality of synthesized cRNA was assessed by gel electrophoresis, and quantity was estimated by spectroscopy and gel electrophoresis. Stage V and VI oocytes were surgically removed from the ovaries of large, well-fed and healthy Xenopus laevis anesthetized with 3-amino-benzoic acid ethyl ester (3 gm/l) as previously described. Clusters of isolated oocytes were incubated with 292 U/ml Worthington (Freehold, N.J.) type IV collagenase or 1.3 mg/ml collagenase (Life Technologies, Gaithersburg, MD; 17018-029) for 2 hr in Ca^2+-free solution comprised of (in mM) 115 NaCl, 2.5 KCl, and 10 HEPES, pH 7.5, with slow agitation to remove the follicular cell layer. Oocytes were then washed extensively in the same solution supplemented with 1.8 mM CaCl2 and maintained in Barth's solution comprised of (in mM): 88 NaCl, 1 KCl, 2.4 NaHCO3, 10 HEPES, 0.82 MgSO4, 0.33 Ca(NO3)2, and 0.91 CaCl2 and supplemented with 100 μg/m1 gentamycin, 10 μg/ml streptomycin, and 10 μg/ml penicillin. Oocytes were manually defolliculated and injected within 24 hrs of isolation with 3-5 ng of NR1 subunit cRNA and 7-10 ng of NR2 cRNA subunit in a 50 nl volume, or 5-10 ng of AMPA or kainate receptor cRNAs in a 50 nl volume, and incubated in Barth's solution at 18° C. for 1-7 d. Glass injection pipettes had tip sizes ranging from 10-20 microns, and were backfilled with mineral oil.
(§2) Two electrode voltage-clamp recordings were made 2-7 days post-injection as previously described. Oocytes were placed in a dual-track plexi-glass recording chamber with a single perfusion line that splits in a Y-configuration to perfuse two oocytes. Dual recordings were made at room temperature (23° C.) using two Warner OC725B two-electrode voltage clamp amplifiers, arranged as recommended by the manufacturer. Glass microelectrodes (1-10 Megaohms) were filled with 300 mM KCl (voltage electrode) or 3 M KCl (current electrode). The bath clamps communicated across silver chloride wires placed into each side of the recording chamber, both of which were assumed to be at a reference potential of 0 mV. Oocytes were perfused with a solution comprised of (in mM) 90 NaCl, 1 KCl, 10 HEPES, and 0.5 BaCl2; pH was adjusted by addition of 1-3 M NaOH of HC1 to 7.4. Oocytes were recorded under voltage clamp at −40 mV. […] In some experiments, 10 μM EDTA was obtained by adding a 1:1000 dilution of 10 mM EDTA, in order to chelate contaminant divalent ions such as Zn^2+. […] Concentration effect curves consisting of 4 to 8 concentrations were obtained in this manner. The baseline leak current at −40 mV was measured before and after recording, and the full recording linearly corrected for any change in leak current. […] Each experiment consisted of recordings from 3 to 10 oocytes obtained from a single frog. Results from multiple experiments were pooled, and the average percent responses at antagonist concentrations were fitted by the equation,
(§3) Percent Response=(100−minimum)/(1+([conc]/IC50)nH)+minimum

[2] = target: NR1/NR2B (Rattus norvegicus, UniProt P35439+Q00960); assay: Two electrode voltage clamp, Xenopus oocytes expressing recombinant NR1/NR2B; assay type: cell-based; settings: for remaining activity at 100 µM: read-out: 2B percent effect at the maximum tested concentration
Sequence of NR1/NR2B (Q00960 27-1482, other chains not shown): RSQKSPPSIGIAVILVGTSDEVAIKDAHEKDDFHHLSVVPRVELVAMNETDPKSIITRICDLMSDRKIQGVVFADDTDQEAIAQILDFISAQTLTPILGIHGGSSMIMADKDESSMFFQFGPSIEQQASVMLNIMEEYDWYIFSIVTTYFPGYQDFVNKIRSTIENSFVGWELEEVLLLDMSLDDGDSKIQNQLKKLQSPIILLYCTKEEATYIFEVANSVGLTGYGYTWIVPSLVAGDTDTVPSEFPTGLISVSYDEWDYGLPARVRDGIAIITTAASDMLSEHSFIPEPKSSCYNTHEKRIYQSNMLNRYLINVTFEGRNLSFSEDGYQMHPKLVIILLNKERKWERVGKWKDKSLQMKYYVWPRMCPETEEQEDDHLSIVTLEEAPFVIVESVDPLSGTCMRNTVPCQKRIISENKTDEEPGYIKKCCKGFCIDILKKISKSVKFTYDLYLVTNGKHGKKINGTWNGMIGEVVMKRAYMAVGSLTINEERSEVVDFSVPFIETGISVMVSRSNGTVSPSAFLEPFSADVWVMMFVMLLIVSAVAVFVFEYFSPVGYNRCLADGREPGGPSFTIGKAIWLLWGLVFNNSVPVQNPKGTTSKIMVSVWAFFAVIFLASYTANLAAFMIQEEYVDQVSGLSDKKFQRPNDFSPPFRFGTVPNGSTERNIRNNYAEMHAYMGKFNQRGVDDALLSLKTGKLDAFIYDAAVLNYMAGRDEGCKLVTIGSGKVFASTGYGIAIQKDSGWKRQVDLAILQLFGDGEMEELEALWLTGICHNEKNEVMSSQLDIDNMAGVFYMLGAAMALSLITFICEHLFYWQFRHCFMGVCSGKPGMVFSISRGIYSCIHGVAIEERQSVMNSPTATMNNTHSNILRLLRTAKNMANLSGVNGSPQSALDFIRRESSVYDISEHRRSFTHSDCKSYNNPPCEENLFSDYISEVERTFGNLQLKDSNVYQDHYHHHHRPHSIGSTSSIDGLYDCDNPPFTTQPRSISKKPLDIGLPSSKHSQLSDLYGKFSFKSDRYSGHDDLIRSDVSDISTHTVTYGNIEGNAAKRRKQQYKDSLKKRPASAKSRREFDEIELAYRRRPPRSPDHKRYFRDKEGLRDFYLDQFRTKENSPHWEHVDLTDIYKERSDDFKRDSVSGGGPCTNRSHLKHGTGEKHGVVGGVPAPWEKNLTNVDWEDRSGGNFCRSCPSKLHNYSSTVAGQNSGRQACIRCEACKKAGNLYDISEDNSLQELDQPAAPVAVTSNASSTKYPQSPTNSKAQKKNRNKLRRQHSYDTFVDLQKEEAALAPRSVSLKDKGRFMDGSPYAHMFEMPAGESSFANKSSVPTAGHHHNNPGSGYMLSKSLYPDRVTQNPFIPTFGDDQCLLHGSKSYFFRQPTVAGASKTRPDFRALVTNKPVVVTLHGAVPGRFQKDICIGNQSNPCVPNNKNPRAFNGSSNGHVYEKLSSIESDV
Method: as §1, §2, §3

[3] = target: NR1/NR2C (Rattus norvegicus, UniProt P35439+Q00961); assay: Two electrode voltage clamp, Xenopus oocytes expressing recombinant NR1/NR2C; assay type: cell-based
Method: as §1, §2, §3

[4] = target: NR1/NR2D (Rattus norvegicus, UniProt P35439+Q62645); assay: Two electrode voltage clamp, Xenopus oocytes expressing recombinant NR1/NR2D; assay type: cell-based
Method: as §1, §2, §3

[5] = target: GluR1 (Rattus norvegicus, UniProt P19490); assay: Two electrode voltage clamp, Xenopus oocytes expressing GluR1; assay type: cell-based; settings: for remaining activity at 100 µM: read-out: GluR1 percent effect at the maximum tested concentration
Sequence of GluR1 (P19490 19-907): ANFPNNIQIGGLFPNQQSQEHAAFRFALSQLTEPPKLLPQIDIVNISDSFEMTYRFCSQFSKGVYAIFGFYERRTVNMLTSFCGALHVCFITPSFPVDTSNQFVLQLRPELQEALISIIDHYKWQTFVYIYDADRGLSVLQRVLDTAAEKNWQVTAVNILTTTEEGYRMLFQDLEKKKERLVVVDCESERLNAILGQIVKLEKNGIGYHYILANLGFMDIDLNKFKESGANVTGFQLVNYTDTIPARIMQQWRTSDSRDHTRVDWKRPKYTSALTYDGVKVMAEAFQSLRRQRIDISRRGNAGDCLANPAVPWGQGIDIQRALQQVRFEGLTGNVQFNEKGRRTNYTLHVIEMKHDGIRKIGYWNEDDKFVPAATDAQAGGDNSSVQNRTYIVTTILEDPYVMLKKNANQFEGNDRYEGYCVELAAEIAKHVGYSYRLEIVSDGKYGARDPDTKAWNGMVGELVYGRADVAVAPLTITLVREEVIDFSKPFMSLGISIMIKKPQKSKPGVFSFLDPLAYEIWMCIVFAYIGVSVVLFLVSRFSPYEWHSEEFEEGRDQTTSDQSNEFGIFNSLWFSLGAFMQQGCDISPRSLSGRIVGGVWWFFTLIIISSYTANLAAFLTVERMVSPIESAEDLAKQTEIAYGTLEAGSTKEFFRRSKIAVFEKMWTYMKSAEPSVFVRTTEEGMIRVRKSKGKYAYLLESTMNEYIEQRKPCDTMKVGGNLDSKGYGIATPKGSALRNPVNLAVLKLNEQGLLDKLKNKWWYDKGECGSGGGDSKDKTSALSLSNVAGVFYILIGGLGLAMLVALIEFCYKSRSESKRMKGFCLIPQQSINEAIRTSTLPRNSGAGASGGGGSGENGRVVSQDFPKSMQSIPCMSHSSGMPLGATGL
Method: as §1, §2, §3

[6] = target: T1, NR2D (Homo sapiens, UniProt O15399+Q05586); assay: Literature functional antagonist potency at NR2D (Table 1); assay type: cell-based
[7] = target: NR2A (Homo sapiens, UniProt Q05586+Q12879); settings: cited from earlier work
[8] = target: T2, NR2B (Homo sapiens, UniProt Q05586+Q13224); settings: cited from earlier work
T2 sequence (Q13224 27-1484, other chains not shown): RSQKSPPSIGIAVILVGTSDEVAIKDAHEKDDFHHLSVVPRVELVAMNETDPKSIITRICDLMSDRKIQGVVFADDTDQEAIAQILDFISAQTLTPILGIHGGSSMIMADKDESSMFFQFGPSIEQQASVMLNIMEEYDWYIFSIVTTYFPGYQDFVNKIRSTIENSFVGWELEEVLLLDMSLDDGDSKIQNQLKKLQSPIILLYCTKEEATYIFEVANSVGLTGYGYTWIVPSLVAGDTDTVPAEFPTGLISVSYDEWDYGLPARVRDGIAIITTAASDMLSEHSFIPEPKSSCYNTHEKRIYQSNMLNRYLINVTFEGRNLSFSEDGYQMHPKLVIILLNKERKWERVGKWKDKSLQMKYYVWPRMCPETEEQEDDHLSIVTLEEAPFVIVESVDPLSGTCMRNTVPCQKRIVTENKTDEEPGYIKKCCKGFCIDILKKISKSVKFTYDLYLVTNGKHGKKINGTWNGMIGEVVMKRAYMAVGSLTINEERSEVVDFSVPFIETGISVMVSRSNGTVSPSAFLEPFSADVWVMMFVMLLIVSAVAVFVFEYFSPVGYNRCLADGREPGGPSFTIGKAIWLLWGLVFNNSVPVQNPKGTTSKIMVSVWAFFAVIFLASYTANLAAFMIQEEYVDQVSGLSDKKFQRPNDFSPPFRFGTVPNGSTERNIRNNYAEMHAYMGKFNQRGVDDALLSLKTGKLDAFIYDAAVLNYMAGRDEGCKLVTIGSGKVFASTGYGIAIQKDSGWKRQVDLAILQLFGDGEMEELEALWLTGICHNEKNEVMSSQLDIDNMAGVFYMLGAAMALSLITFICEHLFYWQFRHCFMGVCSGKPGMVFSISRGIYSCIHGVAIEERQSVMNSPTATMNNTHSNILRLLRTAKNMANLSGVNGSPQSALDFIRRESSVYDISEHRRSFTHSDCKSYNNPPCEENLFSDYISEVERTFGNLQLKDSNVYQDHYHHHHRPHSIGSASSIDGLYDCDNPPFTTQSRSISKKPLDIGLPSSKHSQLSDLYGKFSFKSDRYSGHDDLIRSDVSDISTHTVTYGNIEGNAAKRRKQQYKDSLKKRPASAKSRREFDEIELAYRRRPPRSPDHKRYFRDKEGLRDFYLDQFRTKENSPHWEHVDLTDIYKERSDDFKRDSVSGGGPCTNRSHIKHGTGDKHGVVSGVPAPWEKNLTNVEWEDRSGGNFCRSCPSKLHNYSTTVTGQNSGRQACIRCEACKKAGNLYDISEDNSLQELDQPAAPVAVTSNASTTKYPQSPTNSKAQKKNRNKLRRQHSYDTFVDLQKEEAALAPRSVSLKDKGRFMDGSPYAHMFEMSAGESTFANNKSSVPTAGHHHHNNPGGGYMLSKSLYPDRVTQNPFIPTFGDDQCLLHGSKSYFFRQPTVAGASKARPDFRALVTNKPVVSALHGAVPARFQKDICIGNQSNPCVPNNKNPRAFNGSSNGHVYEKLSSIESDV

[9] = target: NR2C (Homo sapiens, UniProt Q05586+Q14957)
Sequence of NR2C (Q14957 20-1233, other chains not shown): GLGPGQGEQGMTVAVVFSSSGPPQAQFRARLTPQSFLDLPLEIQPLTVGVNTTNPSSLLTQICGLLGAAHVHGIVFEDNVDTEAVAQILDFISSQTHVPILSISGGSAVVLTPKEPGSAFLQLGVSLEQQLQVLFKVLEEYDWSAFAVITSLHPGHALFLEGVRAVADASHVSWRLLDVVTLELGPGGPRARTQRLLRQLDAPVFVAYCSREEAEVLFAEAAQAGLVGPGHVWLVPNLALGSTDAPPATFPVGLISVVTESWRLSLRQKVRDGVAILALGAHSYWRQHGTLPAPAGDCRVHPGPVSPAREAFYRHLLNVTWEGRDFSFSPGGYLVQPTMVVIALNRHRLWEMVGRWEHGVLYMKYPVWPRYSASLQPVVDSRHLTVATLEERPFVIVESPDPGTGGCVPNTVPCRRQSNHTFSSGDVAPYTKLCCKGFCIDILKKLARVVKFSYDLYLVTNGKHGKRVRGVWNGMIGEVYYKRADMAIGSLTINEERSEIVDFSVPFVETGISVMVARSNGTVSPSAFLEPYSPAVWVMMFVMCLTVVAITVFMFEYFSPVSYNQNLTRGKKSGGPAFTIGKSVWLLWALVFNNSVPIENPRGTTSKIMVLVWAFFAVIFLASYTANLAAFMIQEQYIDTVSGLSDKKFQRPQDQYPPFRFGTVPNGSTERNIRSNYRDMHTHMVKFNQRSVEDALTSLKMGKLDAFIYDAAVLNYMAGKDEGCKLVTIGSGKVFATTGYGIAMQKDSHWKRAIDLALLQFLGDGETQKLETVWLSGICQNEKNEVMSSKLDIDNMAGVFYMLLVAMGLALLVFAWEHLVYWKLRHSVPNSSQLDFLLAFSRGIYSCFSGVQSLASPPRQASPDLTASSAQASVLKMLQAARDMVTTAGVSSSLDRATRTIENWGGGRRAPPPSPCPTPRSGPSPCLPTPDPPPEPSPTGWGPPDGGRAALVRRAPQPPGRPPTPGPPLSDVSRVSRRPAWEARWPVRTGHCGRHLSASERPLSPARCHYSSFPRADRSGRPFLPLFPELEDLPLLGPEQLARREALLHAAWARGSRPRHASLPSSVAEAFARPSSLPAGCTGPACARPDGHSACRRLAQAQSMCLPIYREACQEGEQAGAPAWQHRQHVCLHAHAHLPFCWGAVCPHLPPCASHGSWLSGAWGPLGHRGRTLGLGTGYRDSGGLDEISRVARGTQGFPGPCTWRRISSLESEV

[10] = target: T1, NR2D
[11] = target: T2, NR2B; assay: Literature functional antagonist potency at NR2B (Table 1)
[12] = target: T3, NR1/NR2D (Rattus norvegicus, UniProt Q62645); assay: Ca2+ fluorescence screening assay in NR1/NR2D expressing BHK cells (96 well); assay type: cell-based; parameters: expressed in transfected cells; host or cells: BHK-21 cells; NR1 induced by doxycyclin (Tet-On), NR2D constitutive
[13] = target: NR1/NR2C (Rattus norvegicus, UniProt Q00961); assay: Two electrode voltage clamp, Xenopus oocytes expressing recombinant NR1/NR2C; assay type: cell-based; settings: logistic fit, minimum forced to 0; read-out: 2C IC50
Method: as §1, §2, §3

[14] = target: T3, NR1/NR2D; assay: Two electrode voltage clamp, Xenopus oocytes expressing recombinant NR1/NR2D; assay type: cell-based
Method: as §1, §2, §3

[15] = logistic fit, minimum forced to 0, read-out: 2C IC50
[16] = logistic fit, minimum forced to 0, read-out: 2D IC50
[17] = 10 μM test compound, 100 μM glutamate/1 mM glycine

CCN(CC)C(=O)Oc1ccc(C(=O)Nc2cccc3ccccc23)cc1 [1063-2]
IC50 [1]: 433 µM | IC50 [2]: 141 µM | IC50 [3]: 6 µM | IC50 [4]: 4 µM | remaining activity at 100 µM [5]: 118%

CC(C)N(C(=O)Oc1ccc(C(=O)Nc2cccc3ccccc23)cc1)C(C)C [1063-4]
IC50 [1]: 874 µM | IC50 [2]: 158 µM | IC50 [3]: 8 µM | IC50 [4]: 5 µM | remaining activity at 100 µM [5]: 130%

C=CCN(CC=C)C(=O)Oc1ccc(C(=O)Nc2cccc3ccccc23)cc1 [1063-5]
remaining activity at 100 µM [1]: 104% | IC50 [2]: 719 µM | IC50 [3]: 42 µM | IC50 [4]: 28 µM | remaining activity at 100 µM [5]: 103%

CC(C)N(C(=O)Oc1ccc(C(=O)Oc2ccc3cccc(N)c3c2)cc1)C(C)C [1063-13]
remaining activity at 100 µM [1]: 89% | remaining activity at 100 µM [2]: 84% | IC50 [3]: 385 µM | IC50 [4]: 55 µM | remaining activity at 100 µM [5]: 117%

CCN(CC)C(=O)Oc1ccc(C(=O)Nc2cccc3cc[nH]c23)cc1 [1063-20]
IC50 [1]: 2420 µM | IC50 [2]: 933 µM | IC50 [3]: 5 µM | IC50 [4]: 3 µM | remaining activity at 100 µM [5]: 92%

CCN(CC)C(=S)Oc1ccc(C(=O)Nc2cccc3cc[nH]c23)cc1 [1063-21]
remaining activity at 100 µM ([1]; at 100 μM): 94% | remaining activity at 100 µM ([2]; at 100 μM): 78% | IC50 [3, 15]: 15 µM | IC50 [4, 16]: 4 µM | remaining activity at 100 µM ([5]; at 100 μM): 102%

CCN(CC)C(=O)Oc1ccc(C(=O)Nc2cc(C)cc3c(C)c[nH]c23)cc1 [1063-34]
remaining activity at 100 µM [1]: 71% | IC50 [2]: 365 µM | IC50 [3]: 102 µM | IC50 [4]: 93 µM | remaining activity at 100 µM [5]: 85%

CCN(CC)C(=O)Oc1ccc(C(=O)Nc2cc(C(=O)OC)cc3c(C)c[nH]c23)cc1 [1063-35]
IC50 [1]: 177 µM | IC50 [2]: 238 µM | remaining activity at 100 µM ([3]; read-out: 2C percent effect at the maximum tested concentration): 77% | remaining activity at 100 µM ([4]; read-out: 2D percent effect at the maximum tested concentration): 80% | remaining activity at 100 µM [5]: 97%

O=C(O)[C@H]1CN(CCCP(=O)(O)O)CCN1 [(R)CPP]
2A/2D (ratio of Ki**) ([6]; functional Ki ratio): 0.02** | potency estimated from few doses ([7]; Ki estimated from functionally determined IC50 at a single agonist concentration, read-out: 2A (μM) Ki**): 0.04 µM | potency estimated from few doses ([8]; Ki estimated from functionally determined IC50 at a single agonist concentration, read-out: 2B (μM) Ki**): 0.27 µM | potency estimated from few doses ([9]; Ki estimated from functionally determined IC50 at a single agonist concentration; read-out: 2C (μM) Ki**; cited from earlier work): 0.63 µM | potency estimated from few doses ([10]; Ki estimated from functionally determined IC50 at a single agonist concentration; read-out: 2D (μM) Ki**; cited from earlier work): 2 µM | 2A/2B (ratio of Ki**) ([11]; functional Ki ratio): 0.2**

C[C@]12N[C@H](Cc3ccccc31)c1ccccc12 [(—)MK-801]
IC50 ([9]; non-competitive and uncompetitive antagonists; read-out: 2C (μM) IC50; cited from earlier work): 0.04 µM | IC50 ([10]; non-competitive and uncompetitive antagonists; read-out: 2D (μM) IC50; cited from earlier work): 0.17 µM | identification in test screen of NR1/NR2D expressing BHK cells [12, 17]: successfully identified

O=c1[nH]c2cc(Cl)c(Cl)c([N+](=O)[O-])c2[nH]c1=O [ACEA-1021]
2A/2D (ratio of Kb) ([6]; Kb ratio): 0.4 | Kb ([7]; Kb determined by Schild analysis, read-out: 2A (μM) Kb): 0.004 µM | Kb ([8]; Kb determined by Schild analysis, read-out: 2B (μM) Kb): 0.004 µM | Kb ([9]; Kb determined by Schild analysis; read-out: 2C (μM) Kb; cited from earlier work): 0.003 µM | Kb ([10]; Kb determined by Schild analysis; read-out: 2D (μM) Kb; cited from earlier work): 0.011 µM | 2A/2B (ratio of Kb) ([11]; Kb ratio): 1.0

CCc1cccc(N(C)C(N)=Nc2cccc3ccccc23)c1 [CNS-1102]
identification in test screen of NR1/NR2D expressing BHK cells [12, 17]: successfully identified

CC(C(O)c1ccc(O)cc1)N1CCC(Cc2ccccc2)CC1 (stereo not drawn) [Ifenprodil]
IC50 ([7]; read-out: 2A (μM) IC50, non-competitive and uncompetitive antagonists): 40 µM | IC50 ([9]; read-out: 2C (μM) IC50; non-competitive and uncompetitive antagonists; cited from earlier work): 29 µM | IC50 ([10]; read-out: 2D (μM) IC50; non-competitive and uncompetitive antagonists; cited from earlier work): 76 µM | identification in test screen of NR1/NR2D expressing BHK cells [12, 17]: successfully identified

C=CCN1CCC2(C)c3cc(O)ccc3CC1C2C (stereo not drawn) [N-allylnormetazoline]
identification in test screen of NR1/NR2D expressing BHK cells [12, 17]: successfully identified

O=C(O)C1NCCN(C(=O)c2ccc3c(ccc4ccccc43)c2)C1C(=O)O (stereo not drawn) [PPDA, 1-(phenanthrene-2-carbonyl)piperazin-2,3, dicarboxylic acid]
selectivity for NR2D over NR2A ([10]; estimated Ki; cited from earlier work): ~5 fold

N=C(N)c1ccc(OCCCCCOc2ccc(C(=N)N)cc2)cc1 [Pentamidine]
IC50 ([8]; non-competitive and uncompetitive antagonists, read-out: 2B (μM) IC50): 1.5 µM

Cc1ccc2[nH]c(=O)c(C3=NN(C(=O)CCC(=O)O)C(c4ccc(Br)cc4)C3)c(-c3ccccc3)c2c1 (stereo not drawn) [compound 1105]
IC50 ([1]; logistic fit, minimum forced to 0, read-out: 2A IC50): 218 µM | IC50 ([2]; logistic fit, minimum forced to 0, read-out: 2B IC50): 74 µM | IC50 [3, 15]: 7 µM | IC50 [13]: 7 µM | IC50 [4, 16]: 3 µM | IC50 [14, 16]: 3 µM | IC50 ([5]; logistic fit, minimum forced to 0): 109 µM

COc1ccc(C2CC(c3c(-c4ccccc4)c4cc(Br)ccc4[nH]c3=O)=NN2C(=O)CCC(=O)O)cc1 (stereo not drawn) [compound 1128]
2D percent response at the maximum tested concentration ([14]; at 100 μM): 90% at 100 μM

Cc1ccc2cc(C3CC(c4ccc(Br)cc4)=NN3C(=O)CCC(=O)O)c(=O)[nH]c2c1 (stereo not drawn) [compound 1177]
2D percent response at the maximum tested concentration ([14]; at 100 μM): 80% at 100 μM

O=c1[nH]c2ccc(Cl)cc2c(-c2ccccc2)c1C1=NNC(c2ccc(Br)cc2)C1 (stereo not drawn) [compound 1249]
2D percent response at the maximum tested concentration [14]: 79% at 30 μM

CC(=O)N1N=C(c2c(-c3ccccc3)c3cc(C)ccc3[nH]c2=O)CC1c1ccc(Br)cc1 (stereo not drawn) [compound 1250]
2D percent response at the maximum tested concentration [14]: 81% at 30 μM

N[C@@H](CCC(=O)O)C(=O)O [glutamate, reference compound]
EC50 ([14]; submicromolar, method not stated, read-out: EC50 for activation of NR2D-containing receptors): < 0.5 µM

C=CCN1CC[C@]23CCCC[C@H]2[C@H]1Cc1ccc(O)cc13 [levallorphan]
identification in test screen of NR1/NR2D expressing BHK cells [12, 17]: successfully identified

CC12CC3CC(C)(C1)CC(N)(C3)C2 [memantine]
identification in test screen of NR1/NR2D expressing BHK cells [12]: successfully identified

(+)MK-801
identification in test screen of NR1/NR2D expressing BHK cells [12, 17]: successfully identified
